Reference: the NIST ThermoML archive (doi:10.1021/je700438d)
± gives the expanded uncertainty stated by the source.

Test: mn = molality of the nth substance listed, in mol/kg
Conditions: Liquid, Vibrating tube method

[Cl-].[Li+] [lithium chloride] + CCO
Conditions | mass density [kg/m3]
348.15 K, 20090 kPa, m1 = 0.3023 | 772.2 ± 0.49
348.15 K, 20140 kPa, m1 = 1.222 | 800.25 ± 0.47
348.15 K, 20480 kPa, m1 = 0.5873 | 781.78 ± 0.49
348.15 K, 25070 kPa, m1 = 1.222 | 804.33 ± 0.49
348.15 K, 25320 kPa, m1 = 0.5873 | 786.04 ± 0.5
348.15 K, 25420 kPa, m1 = 2.022 | 826.11 ± 0.48
348.15 K, 25640 kPa, m1 = 2.88 | 846.96 ± 0.46
348.15 K, 25840 kPa, m1 = 0.1049 | 770.86 ± 0.52
348.15 K, 25860 kPa, m1 = 0.3023 | 777.45 ± 0.51
348.15 K, 30060 kPa, m1 = 0.3023 | 781.03 ± 0.53
348.15 K, 30160 kPa, m1 = 2.022 | 829.46 ± 0.49
348.15 K, 30410 kPa, m1 = 1.222 | 808.41 ± 0.51
348.15 K, 30610 kPa, m1 = 0.5873 | 790.37 ± 0.53
348.15 K, 30710 kPa, m1 = 0.1049 | 775.12 ± 0.54
348.15 K, 30840 kPa, m1 = 2.88 | 850.58 ± 0.48
348.15 K, 35190 kPa, m1 = 2.88 | 853.39 ± 0.49
348.15 K, 35240 kPa, m1 = 0.1049 | 778.84 ± 0.56
348.15 K, 35420 kPa, m1 = 1.222 | 811.91 ± 0.53
348.15 K, 35610 kPa, m1 = 2.022 | 832.94 ± 0.51
348.15 K, 35840 kPa, m1 = 0.3023 | 785.62 ± 0.56
348.15 K, 35840 kPa, m1 = 0.5873 | 794.33 ± 0.55
348.15 K, 39860 kPa, m1 = 0.5873 | 797.14 ± 0.57
348.15 K, 39860 kPa, m1 = 2.88 | 856.19 ± 0.5
348.15 K, 39930 kPa, m1 = 0.1049 | 782.45 ± 0.59
348.15 K, 39940 kPa, m1 = 0.3023 | 788.64 ± 0.58
348.15 K, 39960 kPa, m1 = 2.022 | 835.44 ± 0.52
348.15 K, 39970 kPa, m1 = 1.222 | 814.81 ± 0.54
373.15 K, 290 kPa, m1 = 0.1049 | 717.74 ± 0.43
373.15 K, 310 kPa, m1 = 0.3023 | 725.29 ± 0.43
373.15 K, 320 kPa, m1 = 2.022 | 781.71 ± 0.42
373.15 K, 840 kPa, m1 = 1.222 | 757.56 ± 0.42
373.15 K, 960 kPa, m1 = 0.5873 | 736.55 ± 0.43
373.15 K, 980 kPa, m1 = 2.88 | 805.91 ± 0.42
373.15 K, 5060 kPa, m1 = 0.3023 | 731.82 ± 0.44
373.15 K, 5060 kPa, m1 = 1.222 | 762.98 ± 0.43
373.15 K, 5140 kPa, m1 = 0.1049 | 724.52 ± 0.44
373.15 K, 5140 kPa, m1 = 2.88 | 810.39 ± 0.43
373.15 K, 5420 kPa, m1 = 0.5873 | 742.51 ± 0.44
373.15 K, 5860 kPa, m1 = 2.022 | 788.43 ± 0.43
373.15 K, 9980 kPa, m1 = 2.88 | 815.52 ± 0.44
373.15 K, 10060 kPa, m1 = 1.222 | 769.02 ± 0.45
373.15 K, 10070 kPa, m1 = 0.3023 | 738.32 ± 0.46
373.15 K, 10080 kPa, m1 = 0.1049 | 731.05 ± 0.46
373.15 K, 10090 kPa, m1 = 0.5873 | 748.41 ± 0.46
373.15 K, 10090 kPa, m1 = 2.022 | 793.18 ± 0.44
373.15 K, 14620 kPa, m1 = 2.88 | 819.69 ± 0.45
373.15 K, 15020 kPa, m1 = 0.3023 | 744.36 ± 0.48
373.15 K, 15420 kPa, m1 = 0.1049 | 737.69 ± 0.49
373.15 K, 15720 kPa, m1 = 2.022 | 799 ± 0.46
373.15 K, 15740 kPa, m1 = 1.222 | 775.35 ± 0.47
373.15 K, 15850 kPa, m1 = 0.5873 | 755.19 ± 0.48
373.15 K, 20080 kPa, m1 = 0.1049 | 743.13 ± 0.51
373.15 K, 20090 kPa, m1 = 0.5873 | 759.84 ± 0.5
373.15 K, 20310 kPa, m1 = 0.3023 | 750.38 ± 0.51
373.15 K, 20310 kPa, m1 = 2.022 | 803.31 ± 0.47
373.15 K, 20340 kPa, m1 = 1.222 | 780.06 ± 0.49
373.15 K, 21420 kPa, m1 = 2.88 | 825.53 ± 0.46
373.15 K, 24940 kPa, m1 = 2.88 | 828.37 ± 0.47
373.15 K, 25050 kPa, m1 = 2.022 | 807.37 ± 0.49
373.15 K, 25080 kPa, m1 = 1.222 | 784.55 ± 0.5
373.15 K, 25410 kPa, m1 = 0.1049 | 748.94 ± 0.54
373.15 K, 25410 kPa, m1 = 0.3023 | 755.77 ± 0.53
373.15 K, 25840 kPa, m1 = 0.5873 | 765.68 ± 0.52
373.15 K, 30060 kPa, m1 = 0.3023 | 760.33 ± 0.55
373.15 K, 30060 kPa, m1 = 2.022 | 811.2 ± 0.51
373.15 K, 30150 kPa, m1 = 0.5873 | 769.7 ± 0.54
373.15 K, 30150 kPa, m1 = 2.88 | 832.41 ± 0.49
373.15 K, 30260 kPa, m1 = 0.1049 | 753.85 ± 0.56
373.15 K, 30410 kPa, m1 = 1.222 | 789.12 ± 0.53
373.15 K, 35160 kPa, m1 = 0.3023 | 764.94 ± 0.58
373.15 K, 35410 kPa, m1 = 2.022 | 814.8 ± 0.52
373.15 K, 35740 kPa, m1 = 2.88 | 836.3 ± 0.51
373.15 K, 35840 kPa, m1 = 0.1049 | 759.05 ± 0.59
373.15 K, 35840 kPa, m1 = 1.222 | 793.28 ± 0.55
373.15 K, 35980 kPa, m1 = 0.5873 | 774.65 ± 0.57
373.15 K, 39820 kPa, m1 = 1.222 | 796.01 ± 0.57
373.15 K, 39910 kPa, m1 = 0.1049 | 762.54 ± 0.61
373.15 K, 39960 kPa, m1 = 0.3023 | 768.9 ± 0.6
373.15 K, 39970 kPa, m1 = 0.5873 | 777.73 ± 0.59
373.15 K, 39970 kPa, m1 = 2.022 | 817.45 ± 0.54
373.15 K, 39980 kPa, m1 = 2.88 | 839.22 ± 0.52
398.15 K, 680 kPa, m1 = 0.3023 | 696.61 ± 0.43
398.15 K, 740 kPa, m1 = 0.1049 | 688.68 ± 0.44
398.15 K, 740 kPa, m1 = 2.022 | 758.72 ± 0.42
398.15 K, 960 kPa, m1 = 1.222 | 731.58 ± 0.43
398.15 K, 1010 kPa, m1 = 2.88 | 785.44 ± 0.42
398.15 K, 1020 kPa, m1 = 0.5873 | 708.33 ± 0.43
398.15 K, 4860 kPa, m1 = 1.222 | 737.73 ± 0.44
398.15 K, 5010 kPa, m1 = 0.1049 | 695.99 ± 0.45
398.15 K, 5030 kPa, m1 = 2.022 | 765.06 ± 0.43
398.15 K, 5070 kPa, m1 = 0.3023 | 704.02 ± 0.45
398.15 K, 5070 kPa, m1 = 2.88 | 790.37 ± 0.43
398.15 K, 5740 kPa, m1 = 0.5873 | 716.08 ± 0.45
398.15 K, 9680 kPa, m1 = 1.222 | 744.82 ± 0.46
398.15 K, 10060 kPa, m1 = 0.3023 | 711.93 ± 0.47
398.15 K, 10060 kPa, m1 = 0.5873 | 722.74 ± 0.47
398.15 K, 10140 kPa, m1 = 2.88 | 796.07 ± 0.44
398.15 K, 10420 kPa, m1 = 2.022 | 772.34 ± 0.45
398.15 K, 10450 kPa, m1 = 0.1049 | 704.75 ± 0.48
398.15 K, 15060 kPa, m1 = 1.222 | 752.07 ± 0.48
398.15 K, 15060 kPa, m1 = 2.022 | 778 ± 0.47
398.15 K, 15090 kPa, m1 = 0.3023 | 719.36 ± 0.5
398.15 K, 15280 kPa, m1 = 2.88 | 801.31 ± 0.46
398.15 K, 15420 kPa, m1 = 0.1049 | 712.2 ± 0.5
398.15 K, 15960 kPa, m1 = 0.5873 | 731.15 ± 0.49
398.15 K, 20010 kPa, m1 = 2.88 | 805.83 ± 0.47
398.15 K, 20090 kPa, m1 = 0.1049 | 718.73 ± 0.53
398.15 K, 20140 kPa, m1 = 0.3023 | 726.27 ± 0.52
398.15 K, 20350 kPa, m1 = 0.5873 | 736.9 ± 0.52
398.15 K, 20470 kPa, m1 = 1.222 | 758.65 ± 0.5
398.15 K, 20740 kPa, m1 = 2.022 | 784.18 ± 0.49
398.15 K, 25230 kPa, m1 = 0.3023 | 732.68 ± 0.55
398.15 K, 25320 kPa, m1 = 2.88 | 810.7 ± 0.49
398.15 K, 25420 kPa, m1 = 0.5873 | 742.99 ± 0.54
398.15 K, 25610 kPa, m1 = 2.022 | 788.8 ± 0.51
398.15 K, 25620 kPa, m1 = 1.222 | 764.26 ± 0.53
398.15 K, 25840 kPa, m1 = 0.1049 | 726.13 ± 0.56
398.15 K, 30050 kPa, m1 = 0.5873 | 748.05 ± 0.57
398.15 K, 30070 kPa, m1 = 0.3023 | 738.24 ± 0.58
398.15 K, 30070 kPa, m1 = 2.88 | 814.57 ± 0.5
398.15 K, 30090 kPa, m1 = 2.022 | 792.51 ± 0.52
398.15 K, 30150 kPa, m1 = 0.1049 | 731.22 ± 0.59
398.15 K, 30410 kPa, m1 = 1.222 | 768.9 ± 0.55
398.15 K, 34950 kPa, m1 = 0.5873 | 752.88 ± 0.59
398.15 K, 34980 kPa, m1 = 2.88 | 818 ± 0.52
398.15 K, 35240 kPa, m1 = 0.3023 | 743.62 ± 0.61
398.15 K, 35810 kPa, m1 = 2.022 | 796.49 ± 0.55
398.15 K, 35860 kPa, m1 = 0.1049 | 737.37 ± 0.62
398.15 K, 35950 kPa, m1 = 1.222 | 773.57 ± 0.57
398.15 K, 39860 kPa, m1 = 0.1049 | 741.26 ± 0.65
398.15 K, 39920 kPa, m1 = 0.5873 | 757.22 ± 0.62
398.15 K, 39940 kPa, m1 = 1.222 | 776.48 ± 0.59
398.15 K, 39940 kPa, m1 = 2.022 | 798.83 ± 0.56
398.15 K, 39970 kPa, m1 = 0.3023 | 748.04 ± 0.64
398.15 K, 39980 kPa, m1 = 2.88 | 821.9 ± 0.54
